Source: ChEMBL document CHEMBL4800722, “Data for DCP probe BI 605906” (2021)

Columns and labels:
[1] = target: Cathepsin G (Homo sapiens) (UniProt P08311); test: PEPCATHEPSG Eurofins SafetyScreen44 (BI); conditions: Compound concentration 10.0 uM
[2] = target: Serine/threonine-protein kinase/endoribonuclease IRE2 (Homo sapiens) (UniProt Q76MJ5); test: ERN2 Invitrogen Lab (UK) kinase screen (BI); conditions: Compound concentration 1.0 uM
[3] = target: Phosphatidylinositol 5-phosphate 4-kinase type-2 alpha (Homo sapiens) (UniProt P48426); test: PIP4K2A Invitrogen Lab (UK) kinase screen (BI); conditions: Compound concentration 1.0 uM
[4] = target: Serine/threonine-protein kinase TAO1 (Homo sapiens) (UniProt Q7L7X3); test: TAOK1 Invitrogen Lab (UK) kinase screen (BI); conditions: Compound concentration 1.0 uM
[5] = target: Tyrosine-protein kinase Lyn (Homo sapiens) (UniProt P07948); test: LYN B Invitrogen Lab (UK) kinase screen (BI); conditions: Compound concentration 1.0 uM
Tyrosine-protein kinase Lyn (Homo sapiens), sequence (P07948 2-512 limits assumed): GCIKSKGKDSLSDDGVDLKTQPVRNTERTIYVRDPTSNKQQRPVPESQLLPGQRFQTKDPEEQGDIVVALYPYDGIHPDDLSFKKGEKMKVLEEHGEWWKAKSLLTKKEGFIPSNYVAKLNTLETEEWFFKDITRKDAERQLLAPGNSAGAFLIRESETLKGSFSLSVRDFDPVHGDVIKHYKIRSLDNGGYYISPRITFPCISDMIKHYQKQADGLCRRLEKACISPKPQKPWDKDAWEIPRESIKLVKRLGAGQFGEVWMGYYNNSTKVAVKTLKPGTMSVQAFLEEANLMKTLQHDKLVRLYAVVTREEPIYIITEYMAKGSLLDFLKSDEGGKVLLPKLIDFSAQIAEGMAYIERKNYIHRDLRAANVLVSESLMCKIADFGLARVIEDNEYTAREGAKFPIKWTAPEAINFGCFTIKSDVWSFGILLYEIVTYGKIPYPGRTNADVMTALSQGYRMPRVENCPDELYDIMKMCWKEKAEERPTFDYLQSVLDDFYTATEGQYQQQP

[6] = target: Dual specificity mitogen-activated protein kinase kinase 6 (Homo sapiens) (UniProt P52564); test: MAP2K6 Invitrogen Lab (UK) kinase screen (BI); conditions: Compound concentration 1.0 uM
[7] = target: Maternal embryonic leucine zipper kinase (Homo sapiens) (UniProt Q14680); test: MELK Invitrogen Lab (UK) kinase screen (BI); conditions: Compound concentration 1.0 uM
[8] = target: Sphingosine kinase 1 (Homo sapiens) (UniProt Q9NYA1); test: SPHK1 Invitrogen Lab (UK) kinase screen (BI); conditions: Compound concentration 1.0 uM
[9] = target: SRSF protein kinase 2 (Homo sapiens) (UniProt P78362); test: SRPK2 Invitrogen Lab (UK) kinase screen (BI); conditions: Compound concentration 1.0 uM
[10] = target: Dual specificity protein kinase TTK (Homo sapiens) (UniProt P33981); test: TTK Invitrogen Lab (UK) kinase screen (BI); conditions: Compound concentration 1.0 uM
[11] = target: MAP kinase-activated protein kinase 3 (Homo sapiens) (UniProt Q16644); test: MAPKAP-K3 DUNDEE kinase screen (BI); conditions: Compound concentration 10.0 uM
[12] = target: Serine/threonine-protein kinase Nek7 (Homo sapiens) (UniProt Q8TDX7); test: NEK7 DUNDEE kinase screen (BI); conditions: Compound concentration 10.0 uM
[13] = target: Serine/threonine-protein kinase N2 (Homo sapiens) (UniProt Q16513); test: PRK2 DUNDEE kinase screen (BI); conditions: Compound concentration 10.0 uM
[14] = target: Myosin light chain kinase, smooth muscle (Homo sapiens) (UniProt Q15746); test: SMMLCK DUNDEE kinase screen (BI); conditions: Compound concentration 10.0 uM
[15] = target: 5-hydroxytryptamine receptor 6 (Homo sapiens) (UniProt P50406); conditions: Compound concentration 10.0 uM
[16] = target: Alpha-2B adrenergic receptor (Homo sapiens) (UniProt P18089); conditions: Compound concentration 10.0 uM
[17] = target: Muscarinic acetylcholine receptor M2 (Homo sapiens) (UniProt P08172); conditions: Compound concentration 10.0 uM
[18] = target: Acetylcholinesterase (Homo sapiens) (UniProt P22303); conditions: Compound concentration 10.0 uM
[19] = target: Leukotriene A-4 hydrolase (Cavia porcellus) (UniProt P19602); conditions: Compound concentration 10.0 uM
[20] = target: Activin receptor type-2A (Homo sapiens) (UniProt P27037); conditions: Compound concentration 1.0 uM
[21] = target: Cyclin-dependent kinase 9 (Homo sapiens) (UniProt P50750); conditions: Compound concentration 1.0 uM
Cyclin-dependent kinase 9 (Homo sapiens), sequence (P50750 whole entry): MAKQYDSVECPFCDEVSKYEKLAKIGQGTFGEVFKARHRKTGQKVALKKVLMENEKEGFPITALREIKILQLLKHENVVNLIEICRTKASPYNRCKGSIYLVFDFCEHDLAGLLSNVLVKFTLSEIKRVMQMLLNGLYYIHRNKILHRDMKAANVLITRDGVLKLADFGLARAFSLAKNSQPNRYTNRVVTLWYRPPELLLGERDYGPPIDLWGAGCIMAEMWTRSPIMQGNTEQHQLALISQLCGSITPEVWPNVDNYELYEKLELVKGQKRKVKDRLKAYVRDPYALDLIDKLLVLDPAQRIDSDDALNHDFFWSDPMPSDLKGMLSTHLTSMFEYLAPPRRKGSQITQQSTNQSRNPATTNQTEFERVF

[22] = target: Serine/threonine-protein kinase ICK (Homo sapiens) (UniProt Q9UPZ9); conditions: Compound concentration 1.0 uM
[23] = target: Mitogen-activated protein kinase kinase kinase 19 (Homo sapiens) (UniProt Q56UN5); conditions: Compound concentration 1.0 uM
[24] = target: Mitogen-activated protein kinase kinase kinase kinase 1 (Homo sapiens) (UniProt Q92918); conditions: Compound concentration 1.0 uM
[25] = target: TGF-beta receptor type-2 (Homo sapiens) (UniProt P37173); conditions: Compound concentration 1.0 uM
[26] = target: Non-receptor tyrosine-protein kinase TNK1 (Homo sapiens) (UniProt Q13470); conditions: Compound concentration 1.0 uM
[27] = target: Activin receptor type-2B (Homo sapiens) (UniProt Q13705); conditions: Compound concentration 1.0 uM
[28] = target: Serine/threonine-protein kinase MRCK alpha (Homo sapiens) (UniProt Q5VT25); conditions: Compound concentration 1.0 uM
[29] = target: Casein kinase II subunit alpha (Homo sapiens) (UniProt P68400)
Casein kinase II subunit alpha (Homo sapiens), sequence (P68400 whole entry, looked up): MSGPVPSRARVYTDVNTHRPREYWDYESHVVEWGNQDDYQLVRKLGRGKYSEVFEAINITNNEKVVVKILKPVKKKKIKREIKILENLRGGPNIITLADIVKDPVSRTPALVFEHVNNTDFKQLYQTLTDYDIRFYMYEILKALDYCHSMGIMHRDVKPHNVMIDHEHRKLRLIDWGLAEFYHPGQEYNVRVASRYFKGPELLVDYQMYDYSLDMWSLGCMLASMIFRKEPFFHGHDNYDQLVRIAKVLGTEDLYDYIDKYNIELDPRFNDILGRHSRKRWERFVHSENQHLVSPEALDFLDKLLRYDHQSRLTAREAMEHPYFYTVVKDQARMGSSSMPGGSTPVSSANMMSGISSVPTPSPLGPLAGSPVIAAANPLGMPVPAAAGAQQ

[30] = target: Death-associated protein kinase 3 (Homo sapiens) (UniProt O43293); conditions: Compound concentration 1.0 uM
[31] = target: Discoidin domain-containing receptor 2 (Homo sapiens) (UniProt Q16832); conditions: Compound concentration 1.0 uM
[32] = target: Dual specificity tyrosine-phosphorylation-regulated kinase 1B (Homo sapiens) (UniProt Q9Y463)
Dual specificity tyrosine-phosphorylation-regulated kinase 1B (Homo sapiens), sequence (Q9Y463 whole entry, looked up): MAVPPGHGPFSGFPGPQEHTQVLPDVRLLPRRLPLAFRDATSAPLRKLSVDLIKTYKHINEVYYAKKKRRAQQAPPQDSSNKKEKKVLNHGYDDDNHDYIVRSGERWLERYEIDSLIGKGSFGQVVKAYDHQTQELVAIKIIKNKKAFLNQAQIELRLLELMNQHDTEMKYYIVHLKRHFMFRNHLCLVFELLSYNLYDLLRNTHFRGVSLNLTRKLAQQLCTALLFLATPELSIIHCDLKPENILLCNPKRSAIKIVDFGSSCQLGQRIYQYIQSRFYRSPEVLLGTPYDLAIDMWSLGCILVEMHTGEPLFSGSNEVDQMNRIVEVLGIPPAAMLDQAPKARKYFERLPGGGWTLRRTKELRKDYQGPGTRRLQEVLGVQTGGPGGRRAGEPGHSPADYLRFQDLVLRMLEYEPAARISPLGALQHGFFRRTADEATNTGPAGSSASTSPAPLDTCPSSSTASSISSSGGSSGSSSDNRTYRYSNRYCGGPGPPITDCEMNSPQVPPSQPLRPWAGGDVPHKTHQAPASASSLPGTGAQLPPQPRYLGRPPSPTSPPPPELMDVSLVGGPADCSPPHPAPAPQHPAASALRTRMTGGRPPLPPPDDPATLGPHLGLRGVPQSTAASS

[33] = target: Ephrin type-A receptor 5 (Homo sapiens) (UniProt P54756); conditions: Compound concentration 1.0 uM
[34] = target: Ephrin type-A receptor 7 (Homo sapiens) (UniProt Q15375); conditions: Compound concentration 1.0 uM
[35] = target: Glycogen synthase kinase-3 beta (Homo sapiens) (UniProt P49841)
Glycogen synthase kinase-3 beta (Homo sapiens), sequence (P49841 whole entry, looked up): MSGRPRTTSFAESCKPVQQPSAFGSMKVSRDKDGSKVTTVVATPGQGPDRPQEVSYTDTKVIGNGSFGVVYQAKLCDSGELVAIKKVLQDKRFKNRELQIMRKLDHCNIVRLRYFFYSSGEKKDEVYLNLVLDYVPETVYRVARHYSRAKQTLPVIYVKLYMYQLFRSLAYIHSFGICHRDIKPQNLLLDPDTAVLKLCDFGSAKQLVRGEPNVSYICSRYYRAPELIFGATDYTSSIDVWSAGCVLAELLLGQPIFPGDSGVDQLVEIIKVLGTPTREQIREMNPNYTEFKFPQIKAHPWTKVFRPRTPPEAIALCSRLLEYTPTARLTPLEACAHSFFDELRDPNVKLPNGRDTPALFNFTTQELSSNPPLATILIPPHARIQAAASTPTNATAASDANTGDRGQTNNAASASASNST

[36] = target: Homeodomain-interacting protein kinase 3 (Homo sapiens) (UniProt Q9H422); conditions: Compound concentration 1.0 uM
Homeodomain-interacting protein kinase 3 (Homo sapiens), sequence (Q9H422 whole entry, looked up): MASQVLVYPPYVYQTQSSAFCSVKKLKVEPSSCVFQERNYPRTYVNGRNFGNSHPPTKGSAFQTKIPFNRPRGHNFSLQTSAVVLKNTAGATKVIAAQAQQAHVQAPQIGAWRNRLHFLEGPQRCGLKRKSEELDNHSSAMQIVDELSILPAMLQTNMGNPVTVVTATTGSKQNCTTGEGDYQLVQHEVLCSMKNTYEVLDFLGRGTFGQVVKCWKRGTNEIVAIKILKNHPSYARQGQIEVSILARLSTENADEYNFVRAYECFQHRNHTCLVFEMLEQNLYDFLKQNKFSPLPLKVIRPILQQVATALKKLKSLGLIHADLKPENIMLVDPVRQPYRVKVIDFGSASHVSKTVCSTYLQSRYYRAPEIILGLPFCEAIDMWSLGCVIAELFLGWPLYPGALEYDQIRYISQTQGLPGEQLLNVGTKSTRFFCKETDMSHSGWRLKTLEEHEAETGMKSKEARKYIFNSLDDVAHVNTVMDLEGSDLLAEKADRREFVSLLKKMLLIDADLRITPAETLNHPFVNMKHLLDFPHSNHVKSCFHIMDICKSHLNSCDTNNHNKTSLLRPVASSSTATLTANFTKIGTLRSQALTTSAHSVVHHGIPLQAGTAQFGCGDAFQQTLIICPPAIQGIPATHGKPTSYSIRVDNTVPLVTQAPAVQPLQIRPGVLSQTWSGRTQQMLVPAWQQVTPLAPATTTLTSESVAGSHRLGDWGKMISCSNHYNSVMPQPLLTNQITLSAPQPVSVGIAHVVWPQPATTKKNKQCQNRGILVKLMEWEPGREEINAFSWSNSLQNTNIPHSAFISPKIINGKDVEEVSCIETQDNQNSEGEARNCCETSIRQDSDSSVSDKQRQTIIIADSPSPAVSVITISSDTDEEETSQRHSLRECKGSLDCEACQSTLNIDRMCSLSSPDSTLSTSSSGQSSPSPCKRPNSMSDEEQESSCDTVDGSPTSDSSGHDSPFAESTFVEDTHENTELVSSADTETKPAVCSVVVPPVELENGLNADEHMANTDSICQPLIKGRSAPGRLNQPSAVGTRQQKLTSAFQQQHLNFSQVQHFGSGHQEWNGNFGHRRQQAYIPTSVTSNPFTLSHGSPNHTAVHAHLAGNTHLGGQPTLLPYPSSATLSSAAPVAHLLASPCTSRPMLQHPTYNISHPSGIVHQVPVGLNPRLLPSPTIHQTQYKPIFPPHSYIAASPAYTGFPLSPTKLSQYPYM

[37] = target: Inhibitor of nuclear factor kappa-B kinase subunit epsilon (Homo sapiens) (UniProt Q14164)
Inhibitor of nuclear factor kappa-B kinase subunit epsilon (Homo sapiens), sequence (Q14164 whole entry): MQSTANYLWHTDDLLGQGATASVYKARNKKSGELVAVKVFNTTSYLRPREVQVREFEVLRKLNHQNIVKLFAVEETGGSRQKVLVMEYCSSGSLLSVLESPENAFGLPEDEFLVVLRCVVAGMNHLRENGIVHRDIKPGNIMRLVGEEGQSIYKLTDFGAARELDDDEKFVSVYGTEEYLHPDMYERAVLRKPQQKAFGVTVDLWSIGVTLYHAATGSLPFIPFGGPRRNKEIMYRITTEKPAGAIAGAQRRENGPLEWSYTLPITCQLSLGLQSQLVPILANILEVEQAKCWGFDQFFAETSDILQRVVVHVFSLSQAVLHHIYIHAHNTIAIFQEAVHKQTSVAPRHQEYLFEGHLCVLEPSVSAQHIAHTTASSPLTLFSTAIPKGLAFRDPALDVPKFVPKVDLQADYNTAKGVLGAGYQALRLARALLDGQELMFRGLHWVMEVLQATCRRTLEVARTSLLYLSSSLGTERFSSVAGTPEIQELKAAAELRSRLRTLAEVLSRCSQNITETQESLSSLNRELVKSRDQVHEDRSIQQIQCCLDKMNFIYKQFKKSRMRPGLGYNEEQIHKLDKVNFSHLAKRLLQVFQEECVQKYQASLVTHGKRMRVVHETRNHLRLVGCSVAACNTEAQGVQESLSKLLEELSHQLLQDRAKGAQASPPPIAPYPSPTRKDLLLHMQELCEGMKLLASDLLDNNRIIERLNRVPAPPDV

[38] = target: Mitogen-activated protein kinase kinase kinase 9 (Homo sapiens) (UniProt P80192); conditions: Compound concentration 1.0 uM
[39] = target: Serine/threonine-protein kinase 26 (Homo sapiens) (UniProt Q9P289); conditions: Compound concentration 1.0 uM
[40] = target: Serine/threonine-protein kinase pim-1 (Homo sapiens) (UniProt P11309)
Serine/threonine-protein kinase pim-1 (Homo sapiens), sequence (P11309 whole entry, looked up): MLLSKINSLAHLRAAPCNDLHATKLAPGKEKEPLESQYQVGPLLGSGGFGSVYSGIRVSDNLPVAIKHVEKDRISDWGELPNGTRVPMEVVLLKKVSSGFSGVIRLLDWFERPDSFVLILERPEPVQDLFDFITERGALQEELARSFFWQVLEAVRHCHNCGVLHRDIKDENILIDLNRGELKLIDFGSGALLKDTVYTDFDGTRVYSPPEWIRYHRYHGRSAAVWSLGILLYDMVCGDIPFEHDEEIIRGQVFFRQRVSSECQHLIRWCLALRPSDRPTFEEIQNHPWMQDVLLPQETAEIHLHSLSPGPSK

[41] = target: Serine/threonine-protein kinase D2 (Homo sapiens) (UniProt Q9BZL6); conditions: Compound concentration 1.0 uM
[42] = target: Receptor-interacting serine/threonine-protein kinase 2 (Homo sapiens) (UniProt O43353); conditions: Compound concentration 1.0 uM
[43] = target: 3-phosphoinositide-dependent protein kinase 1 (Homo sapiens) (UniProt O15530); conditions: Compound concentration 10.0 uM

Cathepsin G (Homo sapiens), sequence (P08311 whole entry): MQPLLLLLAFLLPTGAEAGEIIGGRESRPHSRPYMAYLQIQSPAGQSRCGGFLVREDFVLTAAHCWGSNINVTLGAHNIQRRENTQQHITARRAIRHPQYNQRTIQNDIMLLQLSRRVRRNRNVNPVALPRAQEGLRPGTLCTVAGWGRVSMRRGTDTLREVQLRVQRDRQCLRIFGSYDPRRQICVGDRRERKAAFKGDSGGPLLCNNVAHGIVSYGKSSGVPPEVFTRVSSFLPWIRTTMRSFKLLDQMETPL

Work on `CCC(F)(F)c1cc(N2CCC(S(C)(=O)=O)CC2)nc2sc(C(N)=O)c(N)c12` [BI-605906] yielded a residual activity [1] of 106%, a residual activity [2] of 102% and a residual activity [3] of 115%. It also gave a residual activity [4] of 88%, a residual activity [5] of 78% and a residual activity [6] of 75%. The residual activity [7] was 103%, the residual activity [8] was 81% and the residual activity [9] was 103%. The residual activity [10] was 75%, the residual activity [11] was 90.2% and the residual activity [12] was 104%. The residual activity [13] was 46.4%, the residual activity [14] was 57.7% and the inhibition [15] was 8.77%. The inhibition [16] was 9.66%, the inhibition [17] was 8% and the residual activity [18] was 87%. It also gave a residual activity [19] of 93%, a residual activity [20] of 108% and a residual activity [21] of 91%. The residual activity [22] was 96%, the residual activity [23] was 98% and the residual activity [24] was 82%. For the same compound, the residual activity [25] was 87%, the residual activity [26] was 92% and the residual activity [27] was 91%. The residual activity [28] was 95%, the residual activity ([29]; Compound concentration 1.0 uM) was 92% and the residual activity ([29]; Compound concentration 10.0 uM) was 107%. For the same compound, the residual activity [30] was 101%, the residual activity [31] was 99% and the residual activity ([32]; Compound concentration 1.0 uM) was 95%. For the same compound, the residual activity ([32]; Compound concentration 10.0 uM) was 91%, the residual activity [33] was 94% and the residual activity [34] was 87%. For the same compound, the residual activity ([35]; Compound concentration 1.0 uM) was 93%, the residual activity ([35]; Compound concentration 10.0 uM) was 87% and the residual activity [36] was 95%. The residual activity ([37]; Compound concentration 1.0 uM) was 98%, the residual activity ([37]; Compound concentration 10.0 uM) was 98% and the residual activity [38] was 108%. It also gave a residual activity [39] of 109%, a residual activity ([40]; Compound concentration 1.0 uM) of 90% and a residual activity ([40]; Compound concentration 10.0 uM) of 99%. The residual activity [41] was 95%, the residual activity [42] was 94% and the residual activity [43] was 89.1%.
